The series is described as follows: Storage stability of budesonide formulations, % recovery (Examples 6 and 8). Format: physicochemical. As to conditions: pH between about 3 and about 8, more preferably about 3.5 to about 6. How it is done:
After dilution all samples were sterilized by filtering them through a 0.2 μm Millipore sterile filters and placed in sterile low density polyethylene plastic vials. These formulations were kept in humidity and temperature controlled chambers at 5° C. 25° C./60% RH and 40° C./75% RH (where RH is the relative humidity). The % recovery after 13.5 weeks from time zero is presented for each formulation and storage condition, in the following table: […]
The formulations described in Examples 6 and 7 were also prepared using lower buffer concentrations of 10 mM, 5 mM, and 1 mM with similar stability results.

For `CCCC1O[C@@H]2C[C@H]3[C@@H]4CCC5=CC(=O)C=C[C@]5(C)[C@H]4[C@@H](O)C[C@]3(C)[C@]2(C(=O)CO)O1` (stereo partly shown) [Budesonide, budesonide], the “stability of aqueous compositions at lower pH ranges” value is “superior stability”.
